In the C3SDB collision cross section collection:
Several values for one entry are separate records, joined by “and”; a condition that tells them apart may be missing. Equal entries are not always repeated.

How the values were obtained:
[1] = instrument: DT, single field
[2] = instrument: DT, single field, calibrated with Agilent tune mix (Agilent)
[3] = [M+Na]+; instrument: DT; stepped-field
[4] = [M+H]+; instrument: TW; calibrated with phosphatidylcholines (ESI+) and phosphatidylethanolamines (ESI-)
[5] = [M+Na]+; instrument: DT; stepped-field; remark: listed apart in the source

SMILES	collision cross section (N2) ([1]; [M+Na]+)	collision cross section (N2) ([1]; [M+NH4]+)	further results
CCCCCCCCC/C=C\CCCCCCCC(=O)OC[C@@H](COC(=O)CCCCCCCCCCCC)OC(=O)CCCCCCC/C=C\CCCCCCCCC [TG(51:2)]	315.77 Å² and 317.68 Å²		collision cross section (N2) ([2]; [M+NH4]+): 317.2 Å²
CCCCC/C=C\C/C=C\CCCCCCCCCC(=O)OC[C@@H](COC(=O)CCCCCCC/C=C\C/C=C\CCCCC)OC(=O)CCCCCCC/C=C\CCCCCCCCC [TG(57:5)]		334.96 Å²	
CCCCCCC/C=C\CCCCCCCC(=O)O[C@H](COC(=O)CCCCCCCCCCCCCCCC)COC(=O)CCCCCCCCCCCCCCCCC [TG(52:1)]	320.83 Å² and 322.81 Å²		collision cross section (N2) ([2]; [M+NH4]+): 323.6 Å²
CCCCC/C=C\C/C=C\CCCCCCCCCCCC(=O)O[C@@H](CO)COC(=O)CCCCCCCCCCCCC [DG(36:2)]		266.09 Å²	
CCCCCCCCCCCCCCCCCC(=O)OC[C@@H](COC(=O)CCCCCCCCCCC)OC(=O)CCCCCCCCCCCCCCCCC [TG(48:0)]		310.54 Å² and 314.67 Å² and 312.34 Å²	
CCCCC/C=C\C/C=C\CCCCCCCCCC(=O)O[C@H](COC(=O)CCCCCCCCCCCC)COC(=O)CCCCCCCCCCCCCCCCCCCCC [TG(55:2)]		332.67 Å² and 335.01 Å²	collision cross section (N2) ([2]; [M+NH4]+): 329.2 Å²
CCCC/C=C\CCCCCCCC(=O)O[C@@H](COC(=O)CCCCCCC/C=C\CCCCC)COC(=O)CCCCCCCCCCCC [TG(42:2)]	285.72 Å² and 288.76 Å²	286.83 Å² and 289.71 Å²	
CCCCCCCCCCCCCCCCCCCCC(=O)O[C@H](COC(=O)CCCCCCCCCCC)COP(=O)([O-])OCC[N+](C)(C)C [PC(33:0)]	284.2 Å²		
CCCCCCC/C=C\CCCCCCCC(=O)OC[C@H](COC(=O)CCCCCCCCC/C=C\CCCCCCCCCC)OC(=O)CCCCCCC/C=C\CCCCCCC [TG(56:3)]	331.24 Å²		collision cross section (N2) ([2]; [M+NH4]+): 332.6 Å²
CCCC/C=C\CCCCCCCC(=O)OC[C@H](COP(=O)(O)OCCN)OC(=O)CCCCCCCCC/C=C\C/C=C\CCCCC [PE(34:3)]			collision cross section (N2) ([2]; [M+H]+): 270.9 Å²; collision cross section (N2) ([2]; [M-H]-): 260.2 Å²; collision cross section (N2) [3]: 276.1 Å²
CC/C=C\C/C=C\C/C=C\CCCCCCCC(=O)O[C@H](COC(=O)CCCCCCC/C=C\C/C=C\CCCCC)COC(=O)CCCCCCCC/C=C\C/C=C\C/C=C\CCCCC [TG(58:8)]		330.76 Å² and 329.67 Å²	
CCCCCCCCCCCCCCCCCCCCC(=O)OC[C@@H](COC(=O)CCCCCCCCCCCC)OC(=O)CCCCCCCCCCCCCCCCCCCC [TG(55:0)]		338.57 Å²	
CC/C=C\C/C=C\C/C=C\C/C=C\C/C=C\C/C=C\CCC(=O)O[C@H](COC(=O)CCCCCCCCC/C=C\C/C=C\CCCCC)COP(=O)(O)OCCN [PE(42:8)]			collision cross section (N2) [3]: 297.3 Å²; collision cross section (N2) [4]: 290 Å²
CC/C=C\C/C=C\C/C=C\C/C=C\C/C=C\C/C=C\CCC(=O)OC[C@H](COP(=O)(O)OC[C@H](N)C(=O)O)OC(=O)CCCCC/C=C\C/C=C\C/C=C\C/C=C\CCCCC [PS(44:10)]			collision cross section (N2) [5]: 296.88 Å²; collision cross section (N2) [3]: 303.5 Å²
CC/C=C\C/C=C\C/C=C\C/C=C\C/C=C\C/C=C\CCC(=O)OC[C@@H](COC(=O)CCCCCCCCCCC)OC(=O)CCCCCCC/C=C\CCCCCCCC [TG(52:7)]		313.4 Å²	
CC/C=C\C/C=C\C/C=C\C/C=C\C/C=C\C/C=C\CCC(=O)OC[C@@H](COC(=O)CCCCCCC/C=C\CCCCC)OC(=O)CCCCCCCCCCCCCCCCCCCCC [TG(59:7)]		337.86 Å²	
CCCCCCCCCCCCCCCCCCCC(=O)OC[C@@H](COC(=O)CCCCCCCCCCCC)OC(=O)CCCCCCCCCCCCCCCCCCC [TG(53:0)]		331.32 Å²	
CCCCC/C=C\C/C=C\C/C=C\CCCCCCCCC(=O)OC[C@@H](COC(=O)CCCCCCC/C=C\CCCCCCC)OC(=O)CCCCCCCCC/C=C\CCCCCCCC [TG(59:5)]		338.34 Å² and 341.2 Å²	
CCCCCCCCCCCCCCCCCCC(=O)OC[C@@H](COC(=O)CCCCCCCCCCCC)OC(=O)CCCCCCCCCCCCCCCCCC [TG(51:0)]		324.83 Å² and 327.28 Å²	
CCCCC/C=C\C/C=C\CCCCCCCCCC(=O)O[C@H](COC(=O)CCCCCCCCCCCCC)COP(=O)(O)OCCN [PE(34:2)]			collision cross section (N2) ([2]; [M+H]+): 272.7 Å²; collision cross section (N2) ([2]; [M+Na]+): 277.6 Å²; collision cross section (N2) ([2]; [M-H]-): 262 Å²; collision cross section (N2) [3]: 278.3 Å²; collision cross section (N2) [4]: 269.9 Å²
C(OC(=O)CCCCCCCCCCCCC)[C@]([H])(OC(CCCCCCCCCCCCC)=O)COC(CCCCCCCCCCCCC)=O [TG(42:0)]	289.67 Å² and 290.31 Å²		
CCCC/C=C\C/C=C\CCCCCCCC(=O)OC[C@H](COC(=O)CCCCCCCCCCCCCCCCCCCCC)OC(=O)CCCCCCCCCCCCCCCCCCC [TG(59:2)]		343.68 Å² and 345.92 Å²	
CCCC/C=C\CCCCCCCC(=O)OC[C@H](COP(=O)([O-])OCC[N+](C)(C)C)OC(=O)CCCCCCCCCCCCCCCCCC [PC(33:1)]	283.22 Å²		collision cross section (N2) ([1]; [M+H]+): 281.49 Å²
